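Each compound was tested at five concentrations against cells in 96-well plates for 48 hours. The concentration for 50% growth inhibition is given as GI50. The concentration for full growth arrest is given as TGI.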
What was measured:
Assay in all cases: NCI-60 cell line screen, 48 h
RXF 393 renal = test system: RXF 393 renal
HCC-2998 colon = test system: HCC-2998 colon
SK-MEL-28 melanoma = test system: SK-MEL-28 melanoma
K-562 leukemia = test system: K-562 leukemia
HCT-116 colon = test system: HCT-116 colon
HL-60(TB) leukemia = test system: HL-60(TB) leukemia
KM12 colon = test system: KM12 colon
HS 578T breast = test system: HS 578T breast
TK-10 renal = test system: TK-10 renal
A498 renal = test system: A498 renal
SK-OV-3 ovarian = test system: SK-OV-3 ovarian
HOP-62 NSCLC = test system: HOP-62 NSCLC
HOP-92 NSCLC = test system: HOP-92 NSCLC
SK-MEL-2 melanoma = test system: SK-MEL-2 melanoma
SW-620 colon = test system: SW-620 colon
COLO 205 colon = test system: COLO 205 colon
BT-549 breast = test system: BT-549 breast
NCI/ADR-RES ovarian = test system: NCI/ADR-RES ovarian
786-0 renal = test system: 786-0 renal
M14 melanoma = test system: M14 melanoma
SR leukemia = test system: SR leukemia
HT29 colon = test system: HT29 colon
OVCAR-8 ovarian = test system: OVCAR-8 ovarian
IGROV1 ovarian = test system: IGROV1 ovarian
SNB-75 CNS = test system: SNB-75 CNS
SF-295 CNS = test system: SF-295 CNS
U251 CNS = test system: U251 CNS
HCT-15 colon = test system: HCT-15 colon
CAKI-1 renal = test system: CAKI-1 renal
SF-539 CNS = test system: SF-539 CNS
MCF7 breast = test system: MCF7 breast
UACC-257 melanoma = test system: UACC-257 melanoma
EKVX NSCLC = test system: EKVX NSCLC
SF-268 CNS = test system: SF-268 CNS
SK-MEL-5 melanoma = test system: SK-MEL-5 melanoma
MDA-MB-435 = test system: MDA-MB-435
RPMI-8226 leukemia = test system: RPMI-8226 leukemia
NCI-H23 lung = test system: NCI-H23 lung
LOX IMVI melanoma = test system: LOX IMVI melanoma
MDA-MB-231 breast = test system: MDA-MB-231 breast
NCI-H226 lung = test system: NCI-H226 lung
MOLT-4 leukemia = test system: MOLT-4 leukemia
SNB-19 CNS = test system: SNB-19 CNS
ACHN renal = test system: ACHN renal
UACC-62 melanoma = test system: UACC-62 melanoma
OVCAR-4 ovarian = test system: OVCAR-4 ovarian
CCRF-CEM leukemia = test system: CCRF-CEM leukemia
PC-3 prostate = test system: PC-3 prostate
UO-31 renal = test system: UO-31 renal
OVCAR-5 ovarian = test system: OVCAR-5 ovarian
OVCAR-3 ovarian = test system: OVCAR-3 ovarian
MALME-3M melanoma = test system: MALME-3M melanoma
NCI-H460 lung = test system: NCI-H460 lung
NCI-H522 lung = test system: NCI-H522 lung
DU-145 prostate = test system: DU-145 prostate
SN12C renal = test system: SN12C renal
A549 NSCLC = test system: A549 NSCLC

COc1ccc(NC(=S)N/N=C/c2c(C)n(C)n(-c3ccccc3)c2=O)cc1
TGI (RXF 393 renal): 56.6 µM | TGI (HCC-2998 colon): > 100 µM | TGI (SK-MEL-28 melanoma): > 100 µM | TGI (K-562 leukemia): > 100 µM | TGI (HCT-116 colon): > 100 µM | TGI (HL-60(TB) leukemia): > 100 µM | TGI (KM12 colon): > 100 µM | TGI (HS 578T breast): 70.3 µM | TGI (TK-10 renal): > 100 µM | TGI (A498 renal): 49.8 µM | TGI (SK-OV-3 ovarian): 82.6 µM | TGI (HOP-62 NSCLC): 41.7 µM | TGI (HOP-92 NSCLC): 65.4 µM | TGI (SK-MEL-2 melanoma): > 100 µM | TGI (SW-620 colon): > 100 µM | TGI (COLO 205 colon): > 100 µM | TGI (BT-549 breast): > 100 µM | TGI (NCI/ADR-RES ovarian): > 100 µM | TGI (786-0 renal): 60.4 µM | TGI (M14 melanoma): > 100 µM | TGI (SR leukemia): > 100 µM | TGI (HT29 colon): > 100 µM | TGI (OVCAR-8 ovarian): 55.7 µM | TGI (IGROV1 ovarian): > 100 µM | TGI (SNB-75 CNS): 84.3 µM | TGI (SF-295 CNS): > 100 µM | TGI (U251 CNS): 51.7 µM | TGI (HCT-15 colon): > 100 µM | TGI (CAKI-1 renal): 51.8 µM | TGI (SF-539 CNS): 59.4 µM | TGI (MCF7 breast): > 100 µM | TGI (UACC-257 melanoma): > 100 µM | TGI (EKVX NSCLC): > 100 µM | TGI (SF-268 CNS): 70.7 µM | TGI (SK-MEL-5 melanoma): > 100 µM | TGI (MDA-MB-435): > 100 µM | TGI (RPMI-8226 leukemia): > 100 µM | TGI (NCI-H23 lung): > 100 µM | TGI (LOX IMVI melanoma): > 100 µM | TGI (MDA-MB-231 breast): 62.6 µM | TGI (NCI-H226 lung): > 100 µM | TGI (MOLT-4 leukemia): > 100 µM | TGI (SNB-19 CNS): 46.2 µM | TGI (ACHN renal): > 100 µM | TGI (UACC-62 melanoma): > 100 µM | TGI (OVCAR-4 ovarian): 39.8 µM | TGI (CCRF-CEM leukemia): > 100 µM | TGI (PC-3 prostate): > 100 µM | TGI (UO-31 renal): > 100 µM

O=C1C(=O)c2ccccc2C(O)=C1Cc1ccccc1
TGI (HCC-2998 colon): > 100 µM | TGI (SK-MEL-28 melanoma): > 100 µM | TGI (HCT-116 colon): > 100 µM | TGI (HS 578T breast): > 100 µM | TGI (TK-10 renal): > 100 µM | TGI (A498 renal): > 100 µM | TGI (SK-OV-3 ovarian): > 100 µM | TGI (OVCAR-5 ovarian): > 100 µM | TGI (SK-MEL-2 melanoma): > 100 µM | TGI (BT-549 breast): > 100 µM | TGI (NCI/ADR-RES ovarian): > 100 µM | TGI (786-0 renal): > 100 µM | TGI (OVCAR-3 ovarian): 79.7 µM | TGI (M14 melanoma): > 100 µM | TGI (HT29 colon): > 100 µM | TGI (SF-295 CNS): > 100 µM | TGI (HCT-15 colon): > 100 µM | TGI (UACC-257 melanoma): > 100 µM | TGI (EKVX NSCLC): > 100 µM | TGI (SK-MEL-5 melanoma): 39 µM | TGI (NCI-H23 lung): > 100 µM | TGI (MDA-MB-231 breast): > 100 µM | TGI (OVCAR-4 ovarian): > 100 µM | TGI (PC-3 prostate): > 100 µM | TGI (UO-31 renal): > 100 µM

COc1cccc2cc(N(C)c3ncnc4ccccc34)ccc12
GI50 (RXF 393 renal): < 0.01 µM | TGI (RXF 393 renal): 20 µM | GI50 (HCC-2998 colon): 0.0211 µM | TGI (HCC-2998 colon): 5.43 µM | GI50 (SK-MEL-28 melanoma): 1.35 µM | TGI (SK-MEL-28 melanoma): 13.8 µM | GI50 (K-562 leukemia): < 0.01 µM | TGI (K-562 leukemia): 25.1 µM | GI50 (HCT-116 colon): < 0.01 µM | TGI (HCT-116 colon): 0.521 µM | GI50 (HL-60(TB) leukemia): < 0.01 µM | TGI (HL-60(TB) leukemia): 0.0486 µM | GI50 (KM12 colon): < 0.01 µM | TGI (KM12 colon): 1.07 µM | GI50 (HS 578T breast): < 0.01 µM | TGI (HS 578T breast): 20.4 µM | TGI (TK-10 renal): 16.9 µM | GI50 (A498 renal): < 0.01 µM | TGI (A498 renal): 11 µM | GI50 (SK-OV-3 ovarian): < 0.01 µM | TGI (SK-OV-3 ovarian): 18.4 µM | GI50 (HOP-62 NSCLC): < 0.01 µM | TGI (HOP-62 NSCLC): 15.4 µM | GI50 (OVCAR-5 ovarian): 0.0319 µM | TGI (OVCAR-5 ovarian): 17.4 µM | GI50 (HOP-92 NSCLC): < 0.01 µM | TGI (HOP-92 NSCLC): 1.03 µM | GI50 (SK-MEL-2 melanoma): 0.142 µM | TGI (SK-MEL-2 melanoma): 14.4 µM | GI50 (SW-620 colon): < 0.01 µM | TGI (SW-620 colon): 17.6 µM | GI50 (COLO 205 colon): < 0.01 µM | TGI (COLO 205 colon): 0.0659 µM | GI50 (BT-549 breast): 0.0185 µM | TGI (BT-549 breast): 6.64 µM | GI50 (NCI/ADR-RES ovarian): < 0.01 µM | TGI (NCI/ADR-RES ovarian): 0.629 µM | GI50 (786-0 renal): < 0.0167 µM | TGI (786-0 renal): 5.9 µM | GI50 (OVCAR-3 ovarian): < 0.01 µM | TGI (OVCAR-3 ovarian): < 0.0107 µM | GI50 (M14 melanoma): < 0.01 µM | TGI (M14 melanoma): 13.7 µM | GI50 (SR leukemia): < 0.01 µM | TGI (SR leukemia): 24.8 µM | GI50 (MALME-3M melanoma): < 0.0484 µM | TGI (MALME-3M melanoma): 10.1 µM | GI50 (NCI-H460 lung): < 0.01 µM | TGI (NCI-H460 lung): 10.8 µM | GI50 (HT29 colon): < 0.01 µM | TGI (HT29 colon): 11.8 µM | GI50 (OVCAR-8 ovarian): 0.0172 µM | TGI (OVCAR-8 ovarian): 32.6 µM | GI50 (IGROV1 ovarian): < 0.01 µM | TGI (IGROV1 ovarian): 12.2 µM | GI50 (SNB-75 CNS): < 0.0105 µM | TGI (SNB-75 CNS): 13 µM | GI50 (SF-295 CNS): < 0.01 µM | TGI (SF-295 CNS): 11.4 µM | GI50 (U251 CNS): < 0.01 µM | TGI (U251 CNS): 11.6 µM | GI50 (HCT-15 colon): < 0.01 µM | TGI (HCT-15 colon): 12.8 µM | GI50 (CAKI-1 renal): < 0.01 µM | TGI (CAKI-1 renal): 12.3 µM | GI50 (SF-539 CNS): < 0.01 µM | GI50 (NCI-H522 lung): < 0.01 µM | TGI (NCI-H522 lung): 3.12 µM | GI50 (MCF7 breast): < 0.01 µM | TGI (MCF7 breast): 12.3 µM | GI50 (UACC-257 melanoma): 0.283 µM | TGI (UACC-257 melanoma): 10.6 µM | GI50 (DU-145 prostate): < 0.01 µM | TGI (DU-145 prostate): 10.4 µM | GI50 (EKVX NSCLC): 0.0772 µM | TGI (EKVX NSCLC): 13.6 µM | GI50 (SF-268 CNS): 0.0221 µM | TGI (SF-268 CNS): 14.1 µM | GI50 (SK-MEL-5 melanoma): < 0.01 µM | TGI (SK-MEL-5 melanoma): 0.0374 µM | TGI (RPMI-8226 leukemia): 4.99 µM | GI50 (NCI-H23 lung): < 0.0156 µM | TGI (NCI-H23 lung): 6.26 µM | GI50 (LOX IMVI melanoma): < 0.0123 µM | TGI (LOX IMVI melanoma): 13.5 µM | GI50 (SN12C renal): < 0.0159 µM | TGI (SN12C renal): 13.3 µM | GI50 (A549 NSCLC): < 0.01 µM | TGI (A549 NSCLC): 9.11 µM | GI50 (MDA-MB-231 breast): 0.025 µM | TGI (MDA-MB-231 breast): 13 µM | GI50 (NCI-H226 lung): < 0.01 µM | TGI (NCI-H226 lung): 0.827 µM | GI50 (MOLT-4 leukemia): 0.0237 µM | TGI (MOLT-4 leukemia): 15.2 µM | GI50 (SNB-19 CNS): < 0.0132 µM | TGI (SNB-19 CNS): 18.4 µM | GI50 (ACHN renal): < 0.01 µM | TGI (ACHN renal): 7.52 µM | GI50 (OVCAR-4 ovarian): < 0.0161 µM | TGI (OVCAR-4 ovarian): 13.5 µM | GI50 (CCRF-CEM leukemia): < 0.0147 µM | TGI (CCRF-CEM leukemia): 17.8 µM | GI50 (PC-3 prostate): < 0.01 µM | TGI (PC-3 prostate): 15.6 µM | GI50 (UO-31 renal): < 0.0287 µM | TGI (UO-31 renal): 13.8 µM

Source: PubChem BioAssay (NCI)
